From patent publication US11701341B2, “Use of 3-[5-amino-4-(3-cyanobenzoyl)-pyrazol-1-yl]-n-cyclopropyl-4-methylbenzamide in the treatment of acute exacerbations of chronic obstructive pulmonary disease” (MEREO BIOPHARMA 1 LIMITED, priority 2017, dated 2023)

Assays:
[1] = system: high sensitivity C-Reactive Protein (hsCRP); assay: AETHER exploratory outcome: hsCRP measured in patient blood; format: in vivo, human; settings: high and low dose over 5 days; including patients with <2% eosinophils; maximal at Day 7; FIG. 3
Text: (§1) A Phase 2 trial (referred to as AETHER) was a double-blind, randomised, placebo-controlled clinical study investigating the use of BCT-197, on top of Standard of Care, for the treatment of patients with AECOPD. Standard of Care included the addition of steroids and/or antibiotics to a patient's chronic COPD medication and symptomatic bronchodilators. Following baseline assessment, 282 eligible patients were randomised to receive either two different dose regimens of BCT-197 or placebo (three doses over five days). The primary endpoint was a comparison of change in forced expiratory volume in 1 second (FEV1) from baseline to day 7 within each arm of the study.
(§2) Patients received one of two oral dosing regimens of 3-[5-amino-4-(3-cyanobenzoyl)-pyrazol-1-yl]-N-cyclopropyl-4-methylbenzamide or matching oral placebo administered according to the dosing schedules shown in Table 1.
(§3) A further exploratory outcome included over the treatment period to Day 5 and BCT197 systemic exposure (to Day 14) were the inflammatory biomarkers high sensitivity C-Reactive Protein (hsCRP) and fibrinogen measured in patient blood. […] This was maximal at Day 7 (FIGS. 3 and 4) coincident with the highest improvement in FEV1 (FIG. 2) in response to BCT197 in the same patient population with <2% eosinophils.

[2] = system: AECOPD; settings: single oral dose; cited from earlier work
[3] = system: patients with AECOPD; assay: Phase 2 trial (AETHER): change in FEV1 from baseline to Day 7, on top of Standard of Care; format: in vivo, human; settings: for improvement in FEV1 (change from baseline to Day 7): sub-group with blood eosinophils <2%, oral, three doses over five days (Days 1, 3, 5), on top of Standard of Care, FIG. 1, FIG. 2
Text: as §1
The trial assessed adult patients ≥40 years with an acute exacerbation of COPD (as defined by increase in symptoms of cough, and/or sputum and/or breathlessness that required addition of antibiotics and or systemic corticosteroids to their regular treatment).
Patients received one of two oral dosing regimens of 3-[5-amino-4-(3-cyanobenzoyl)-pyrazol-1-yl]-N-cyclopropyl-4-methylbenzamide or matching oral placebo administered according to the dosing schedules shown in Table 1. […]
Efficacy of treatment was measured by the primary endpoint of change in FEV1 from baseline (before treatment) to Day 7. Patients with COPD and low eosinophils (determined by blood percentages or absolute counts) are considered to be poorly responsive to treatment of acute exacerbations using known treatments.

[4] = system: fibrinogen; assay: AETHER exploratory outcome: fibrinogen measured in patient blood; format: in vivo, human; settings: high and low dose over 5 days; including patients with <2% eosinophils; maximal at Day 7; FIG. 4
Text: as §1, §2, §3

For Cc1ccc(C(=O)NC2CC2)cc1-n1ncc(C(=O)c2cccc(C#N)c2)c1N [BCT197, 3-[5-Amino-4-(3-cyanobenzoyl)-pyrazol-1-yl]-N-cyclopropyl-4-methylbenzamide], the “reduction versus placebo in hsCRP from baseline” value [1] is given as “dose-dependent reduction”, the “effect on recovery of AECOPD to the stable disease state” value [2] is given as “accelerates the recovery to the stable disease state” and the “relative difference in FEV1 response versus standard of care alone (placebo arm)” value ([3]; >2% eosinophil sub-population, FIG. 1) is given as “much less than in the low eosinophil group”. For the same molecule, the “improvement in FEV1 (change from baseline to Day 7)” value [3] was “substantial and consistent improvement in FEV1”, the “improvement in FEV1 (change from baseline to Day 7)” value ([3]; listed as compound A) was “significant improvement” and the “reduction versus placebo in fibrinogen from baseline” value [4] was “dose-dependent reduction”.
